Reference: US6930118B2, “3-Oxadiazol-5-yl-1-aminoalkyl-1h-indole derivatives” (Amrad Operations Pty. Ltd., priority 2001, dated 2005)

Columns and labels:
Sprague-Dawley rats = experiment: Antinociceptive testing (tail flick / plantar test) after intrathecal or intravenous administration; format: in vivo; conditions: rat
Procedure: The following sequence protocol was used for the acute intrathecal administration to Sprague-Dawley rats. Each rat only underwent one cycle of the sequence protocol:
Intrathecal catheter placement was carried out as first described by Yaksh and Rudy (1976) The general thrust of the catheter placement involves the PE-10 catheter inserted into the subarachnoid space via the antlanto-occipital membrane (as the entry point) and threaded down to the lumber expansion of the spinal cord (spinal cord level L5/L6). The catheter tip is then exteriorised over the forehead. All animals are, assessed for normal motor function and behaviour post-surgery. […]
Drugs were administered in a 0.1 ml volume followed by 0.1 ml saline (0.9% sodium chloride solution; Baxter, Toongabbie, N.S.W., Australia) flush. Tail flick nociception was measured at 15, 30, and in the case of 0.1 mg/kg CP 55,940, 45 min after intravenous administration.
The antinociception tests were all conducted using the Plantar Test Instrument (Ugo Basile, Varese, Italy) which comprises a movable infra-red (IR) heat source, a glass pane onto which the 3-compartment rat enclosure is placed and a controller. […] The withdrawal latency is measured by the time difference between the activation of the IR heat source and physical withdrawal of the paw or tail from the stimulus. […]

CB1 receptor = target: T1, CB1 receptor (Mus musculus, UniProt P47746); experiment: Mouse electrically-stimulated isolated vas deferens bioassay (MVD); format: cell-based; conditions: decrease of electrically evoked twitch force, read-out: CB1 (MVD) % inh at 1.0 μM
T1 construct: Mouse vasa deferentia were dissected with capsular connective tissue intact and set up in 20 ml organ baths; from tissue; host or cells: mouse (Swiss white) isolated vas deferens
Procedure: Functional activity of the compounds was assayed using the mouse electrically-stimulated vas deferens bioassay, a measure of CB1 receptor function (24,25). […] CB2 functionality may be investigated using assays known to those skilled in the art; for example those described in U.S. Pat. No. 6,013,648.
Swiss white mice (35-40 g) were killed by exposure to 80% CO2 in O2 and exsanguination. Mouse vasa deferentia were dissected with capsular connective tissue intact and set up in 20 ml organ baths at 37° C. in Mg^2+-free physiological salt solution. The upper (epididymal) end was attached to an isometric force transducer (Grass FTO3C) and the lower (prostatic) end tied to a fixed support between two parallel platinum field electrodes (5 mm apart, 5 mm long). The tissue was initially stretched by 0.5 g force and allowed to equilibrate 10 min. The tissues were stimulated (Grass S88 stimulator) to contract using trains of electrical field stimulation of 3 pulses (4 Hz), 0.5 ms duration, 100 V (80% maximal voltage) every 20 s for 10 min. This electrical stimulation period was applied before and after both antagonist and agonist addition. Output from the transducer amplifier was recorded on a flat bed recorder (Gould BS 272, Cleveland, Ohio, U.S.A.). All drugs were dissolved in dimethyl sulfoxide (DMSO; Sigma, St Louis, Mo., U.S.A.) and allowed to equilibrate with the tissue for 30 min before the responses to field stimulation were assessed. Drug effects were measured as the percentage decrease of the pre-drug twitch force.

T1 sequence (P47746 whole entry): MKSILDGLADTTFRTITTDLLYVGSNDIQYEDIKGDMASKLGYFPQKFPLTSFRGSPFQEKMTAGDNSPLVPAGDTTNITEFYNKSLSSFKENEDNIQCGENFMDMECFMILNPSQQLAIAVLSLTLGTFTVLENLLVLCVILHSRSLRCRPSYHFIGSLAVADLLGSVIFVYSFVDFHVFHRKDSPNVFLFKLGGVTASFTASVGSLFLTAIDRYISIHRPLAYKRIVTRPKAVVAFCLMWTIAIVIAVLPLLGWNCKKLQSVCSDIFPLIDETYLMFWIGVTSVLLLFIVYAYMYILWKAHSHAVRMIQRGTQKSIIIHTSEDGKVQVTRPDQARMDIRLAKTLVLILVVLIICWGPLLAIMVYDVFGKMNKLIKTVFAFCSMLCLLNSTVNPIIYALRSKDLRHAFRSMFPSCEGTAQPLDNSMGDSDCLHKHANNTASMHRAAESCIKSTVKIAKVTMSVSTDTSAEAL

With `c1ccc(Cc2noc(-c3cn(CCN4CCCC4)c4ccccc34)n2)cc1` [Compound 1, 3-(3-Benzyl-[1,2,4]-oxadiazol-5-yl)-1-[2-(pyrrolidin-1-yl)ethyl]-1H-indole] the antinociceptive effect (Sprague-Dawley rats; i.t. route) was “provided an antinociceptive effect”, the antinociceptive effect (Sprague-Dawley rats; i.v. route) was “provided an antinociceptive effect” and the inhibition at 1 µM (CB1 receptor) was 80%.
